What all share (type): functional
One assay concerns Zymoseptoria tritici. The assay is described as follows: Antifungal activity against Zymoseptoria tritici infected 2 weeks old wheat plant assessed as reduction of diseased leaf area treated 1 day before infection measured after 16 to 18 days.
A further assay deals with Puccinia triticina. The assay is described as follows: Antifungal activity against Puccinia triticina infected 2 weeks old wheat plant assessed as reduction of diseased leaf area treated 1 day before infection measured after 11 days.
For another assay, the system named is Pyricularia grisea. The experiment in a line: Antifungal activity against Magnaporthe grisea infected 3 weeks old rice plant assessed as reduction of diseased leaf area treated 2 days before infection measured after 6 days.

Values after ≈ are worked out from the molar mass of the structure shown. Some results are limits rather than exact numbers.

In the case of `CC(C)[C@@H](C)Nc1c(-c2c(F)cc(F)cc2F)c(Cl)nc2nccnc12`, the 80% effect concentration (EC80) is 47 µg/mL (≈ 123 µM) in the assay with Zymoseptoria tritici, 77 µg/mL (≈ 202 µM) in the assay with Puccinia triticina and greater than 200 µg/mL in the assay with Pyricularia grisea.

With `Fc1cc(F)c(-c2c(F)nc3nccnc3c2NCC(F)(F)F)c(F)c1`, the EC80 amounted to 16 µg/mL (≈ 42.5 µM) in the assay on Zymoseptoria tritici, 20 µg/mL (≈ 53.2 µM) with Puccinia triticina and 11 µg/mL (≈ 29.2 µM) in the assay with Pyricularia grisea.

Regarding `C=CCOC(=O)[C@@H](Nc1c(-c2c(F)cc(F)cc2F)c(F)nc2nccnc12)C(C)C`, the values for the EC80 in the assay on Zymoseptoria tritici, with Puccinia triticina and in the assay with Pyricularia grisea were 21 µg/mL (≈ 48.3 µM), 31 µg/mL (≈ 71.4 µM) and 110 µg/mL (≈ 253 µM), respectively.

Turning to `CC(C)[C@@H](C)Nc1c(-c2c(F)cc(F)cc2F)c(F)nc2nccnc12`, the EC80 in the assay with Zymoseptoria tritici is less than 2 µg/mL; in the assay with Puccinia triticina, less than 6 µg/mL; with Pyricularia grisea it was 11 µg/mL (≈ 30.2 µM).

As to `COc1nc2nccnc2c(NCC(C)C)c1-c1c(F)cc(F)cc1F`, the EC80 with Zymoseptoria tritici came out at 50 µg/mL (≈ 138 µM); in the assay with Puccinia triticina, 35 µg/mL (≈ 96.6 µM); with Pyricularia grisea, 42 µg/mL (≈ 116 µM).

Consider `COc1nc2nccnc2c(NCC(C)C)c1-c1ncc(Cl)cc1F`, for which the EC80 in the assay with Zymoseptoria tritici was 10 µg/mL (≈ 27.6 µM); with Puccinia triticina, greater than 200 µg/mL; in the assay on Pyricularia grisea it was 29 µg/mL (≈ 80.2 µM).

As for `CC(C)CNc1c(-c2cc(F)ccc2F)c(F)nc2nccnc12`, the EC80 in the assay on Zymoseptoria tritici is 80 µg/mL (≈ 241 µM); in the assay on Puccinia triticina, 118 µg/mL (≈ 355 µM); in the assay on Pyricularia grisea, greater than 200 µg/mL.

For the compound `CC(C)C(C)Nc1c(-c2c(F)cc(F)cc2F)c(F)nc2nccnc12` (configuration not stated), the figures for the EC80 with Zymoseptoria tritici, in the assay with Puccinia triticina and in the assay on Pyricularia grisea were 15 µg/mL (≈ 41.2 µM), less than 20 µg/mL and 26 µg/mL (≈ 71.4 µM), respectively.

With `CCC(C)Nc1c(-c2c(F)cc(F)cc2F)c(F)nc2nccnc12` (configuration not stated), the EC80 was found to be 26 µg/mL (≈ 74.2 µM) with Zymoseptoria tritici, 56 µg/mL (≈ 160 µM) in the assay on Puccinia triticina and 9 µg/mL (≈ 25.7 µM) in the assay on Pyricularia grisea.

For the compound `CCC(Nc1c(-c2c(F)cc(F)cc2F)c(F)nc2nccnc12)C(F)(F)F` (configuration not stated), the EC80 in the assay with Zymoseptoria tritici was less than 2 µg/mL; in the assay on Puccinia triticina it was 10 µg/mL (≈ 24.7 µM); in the assay on Pyricularia grisea, 10 µg/mL (≈ 24.7 µM).

Turning to `CC(C)(C)Nc1c(-c2c(F)cc(F)cc2F)c(F)nc2nccnc12`, the EC80 in the assay on Zymoseptoria tritici was 19 µg/mL (≈ 54.2 µM); with Puccinia triticina, greater than 200 µg/mL; with Pyricularia grisea, 35 µg/mL (≈ 99.9 µM).

Turning to `CC(C)CNc1c(-c2cccc(F)c2F)c(F)nc2nccnc12`, the EC80 with Zymoseptoria tritici is 74 µg/mL (≈ 223 µM); in the assay with Puccinia triticina, 157 µg/mL (≈ 472 µM); with Pyricularia grisea, greater than 200 µg/mL.

Take `COc1nc2nccnc2c(NCC(C)C)c1C#Cc1ccccc1`: the results for the EC80 in the assay with Zymoseptoria tritici, in the assay on Puccinia triticina and with Pyricularia grisea were 67 µg/mL (≈ 202 µM), greater than 200 µg/mL and greater than 200 µg/mL, respectively.

Regarding `COc1nc2nccnc2c(N[C@H](C)C(C)C)c1-c1c(F)cc(F)cc1F`, the figures for the EC80 with Zymoseptoria tritici, in the assay on Puccinia triticina and in the assay with Pyricularia grisea were 32 µg/mL (≈ 85 µM), 129 µg/mL (≈ 343 µM) and 100 µg/mL (≈ 266 µM), respectively.

Regarding `COc1nc2nccnc2c(N[C@H](C)C(C)C)c1-c1ncc(Cl)cc1Cl`, the results for the EC80 in the assay on Zymoseptoria tritici, with Puccinia triticina and with Pyricularia grisea were less than 6 µg/mL, 26 µg/mL (≈ 66.3 µM) and 15 µg/mL (≈ 38.2 µM), respectively.

Regarding `COC(=O)[C@@H](Nc1c(-c2c(F)cc(F)cc2F)c(F)nc2nccnc12)C(C)C`, the figures for the 80% effect concentration (EC80) with Zymoseptoria tritici, in the assay with Puccinia triticina and in the assay on Pyricularia grisea were 7 µg/mL (≈ 17.1 µM), less than 6 µg/mL and 57 µg/mL (≈ 140 µM), respectively.

On to `Fc1cc(F)c(-c2c(F)nc3nccnc3c2NC(C2CC2)C(F)(F)F)c(F)c1` (configuration not stated), for which the values for the EC80 with Zymoseptoria tritici, in the assay on Puccinia triticina and in the assay with Pyricularia grisea were less than 6 µg/mL, 16 µg/mL (≈ 38.4 µM) and 104 µg/mL (≈ 250 µM), respectively.

With `COc1nc2nccnc2c(NCC(C)C)c1-c1c(F)cccc1Cl`, the EC80 in the assay on Zymoseptoria tritici was greater than 200 µg/mL; in the assay on Puccinia triticina, 134 µg/mL (≈ 371 µM); in the assay on Pyricularia grisea it was 110 µg/mL (≈ 305 µM).

With `C[C@H](Nc1c(-c2c(F)cc(F)cc2F)c(F)nc2nccnc12)C(F)(F)F`, the EC80 stood at 5 µg/mL (≈ 12.8 µM) in the assay with Zymoseptoria tritici, 39 µg/mL (≈ 99.9 µM) with Puccinia triticina and 35 µg/mL (≈ 89.7 µM) in the assay on Pyricularia grisea.

The term EC80 denotes the point of the concentration-response curve where the effect stands at 80%.

Source of the values: ChEMBL document CHEMBL3045609, “Synthesis and fungicidal activity of tubulin polymerisation promoters. Part 1: pyrido[2,3-b]pyrazines” (2010).
